According to patent publication US20080269259A1, “Regulation of Autophagy and Cell Survival” (THE TRUSTEES OF THE UNIVERSITY OF PENNSYLVANIA, priority 2005, published 2008):

Legend:
[1] = tested on: Myc/p53ER^TAM/GFP-LC3 cells; test: GFP-LC3 fluorescence imaging; type: cell-based, mice; settings: hTAM 250 mM, CQ 5 pM as printed; 48 hours
Method: For GFP-LC3 fluorescence imaging, Myc/p53ER^TAM/IGFP-LC3 cells (see below) were exposed to the indicated treatments and fixed with 4% paraformaldehyde for 30 minutes at room temperature, washed three times and centrifuged onto slides. DAPI counterstain was used to identify cells with intact nuclei. All fluorescence imaging was performed and digitally captured at 100× magnification on a Nikon Eclipse E800 fluorescent microscope.

Bax^−/−Bak^−/− cells [2] = test: Viability of IL-3 dependent Bax−/−Bak−/− cells (propidium iodide exclusion); type: cell-based, mice; settings: for effect on survival of cells grown in the presence of IL-3 / death of the cells in the cultures: 5 mM 3-MA or 10 μM CQ; for effect on survival of cells grown in the presence of IL-3: IL-3 present; for death of the cells in the cultures: by 48 hours, cells deprived of growth factor for 6 weeks
Method: Immortalized IL-3 dependent cells were obtained from the bone marrow of two independent Bax^−/−Bak^−/− mice using previously established protocols. Subsequent experiments using these cells were performed in complete media consisting of: RPMI 1640 medium (Invitrogen) supplemented with 10% heat inactivated fetal bovine serum (Gemini), 10 units/mL penicillin/streptomycin and 2 mM L-glutamine (Invitrogen), 50 μm β-mercaptoethanol (Sigma) and 10 mM HEPES (Invitrogen). For cells grown in the presence of IL-3, the complete medium was supplemented with 3.5 ng/mL of murine recombinant IL-3 (BD Pharmingen). For IL-3 withdrawal experiments, cells were washed three times in medium without IL-3 and serum. After the final wash, cells were resuspended in complete medium without IL-3. Medium for cells cultured in the absence of IL-3 was replaced with fresh complete medium without IL-3 every 10 days. […] Cell size and number was assessed by using a Coulter Z2 particle analyzer. For readdition experiments, cells grown in the absence of IL-3 at the indicated time points were pelleted by centrifugation and resuspended in complete media containing 3.5 ng/mL IL-3. The FL5.12 cell line was maintained in complete media supplemented with 0.35 ng/mL IL-3. For measurement of mitochondrial membrane potential, cells were incubated for 30 minutes with 50 nM of tetramethyl rhodamine ethyl ester (TMRE; Molecular Probes) in the presence or absence of 50 μM CCCP (Sigma). Viability was performed by incubating cells with annexin V conjugated fluorescein isothiocyanate (BD Pharmingen) in buffer containing 1 μg/mL propidium iodide (Molecular Probes) followed by FACS analysis. DNA fragmentation assay was performed as previously described.

LC3 = LC3 immunofluorescence staining of autophagosomes; type: cell-based, mice; settings: cells without IL-3 for 6 weeks, 18 hours of 5 mM 3-MA or 10 μM CQ
Method: Antibodies (all 1:1000 dilution) used were: GLUT1 (Research Diagnostic Inc.), calreticulin (StressGen), STAT3 (Cell Signalling), actin (Sigma), LC3 (gift from T. Yoshimori), ATG5 (gift from N. Mizushima), Bax (Santa Cruz) and Bak (Upstate Technologies). For immunofluorescence staining, cells were fixed in 4% paraformaldehyde and permeabilized with 0.1% Triton X-100, washed 3 times (PBS containing 0.01% Triton X-100 and 10% FBS), followed by incubation with […]. […] Images were captured using a Zeiss 510 confocal microscope. For surface analysis, cells were fixed in 4% paraformaldehyde, stained with 1:100 biotin-anti-IL-3 alpha chain receptor (BD Pharmingen) and a 1:100 dilution of streptavidin conjugated fluorescein isothiocyanate (BD Pharmingen) followed by FACS analysis.

Bax^−/−Bak^−/− cells [3] = test: ATP levels in growth factor-deprived cells; type: cell-based, mice; settings: IL-3 deprived cells; for ATP levels: 8 hours after addition of drug
Method: The conversion of 5-^3H-glucose to ^3H2O was used to measure the glycolytic rate. The level of ATP was measured as described previously.

[4] = tested on: Myc/p53ER^TAM lymphoma cells; test: In vitro growth of Myc/p53ER^TAM lymphoma cells (cell number); type: cell-based, mice; settings: Mus musculus, 96 h; cell number measured on day 4, medium changed daily, single agent; read-out: IC50, impairment of lymphoma cell growth
Excerpt: For all in vitro experiments media+supplements and drugs treatments were changed daily.

Myc/p53ER^TAM lymphomas [5] = test: Myc/p53ER^TAM lymphoma tumor growth, regression and recurrence in syngeneic mice; type: in vivo
Method: All experiments were performed in accordance with approved animal safety protocols. All experiments were carried out using 8-10 week old C57BL/6X129F1 mice obtained from The Jackson Laboratory (Bar Harbor, Me.). Bone marrow cell harvest and production of bone marrow-derived neoplasms followed the protocol previously described. After primary tumor formation, tumor cells were harvested in ice cold PBS by passage through a […] nylon mesh (BD Bioscience, Bedford, Md.) and expanded in vivo by subcutaneous injection into the flanks of syngeneic mice. For tissue analysis, all animals were sacrificed individually by CO2 asphyxiation and tissue was harvested immediately. Tumors were harvested in ice cold PBS. For each tumor, sections of visually viable tumor tissue were fixed in 10% formalin for preparation of paraffin-embedded sections, glutaraldehyde for electron microscopy (see below). Tumor cell lysates were achieved through manual agitation of remaining tumor tissue in RIPA buffer.
(§1) For tamoxifen (TAM) treatment, the hormone powder (Sigma, St. Louis) was dispersed, via sonication, in peanut oil (Sigma) at a concentration of 10 mg/mL. The administration of TAM was done via daily IP injections at the dose of 1 mg per mouse.
(§2) 4-hydroxytamoxifen (hTAM) (Sigma) was dissolved in ethanol. Cyclophosphamide (Sigma) was dissolved in PBS. Tumors were measured on a daily basis using calipers and tumor volume was calculated using the formula: (mm^3)=AxBx[A+B]/2

[6] = Observed toxicity in treated tumor-bearing mice
Method: as §1, §2

Myc/p53ER^TAM lymphomas [7] = test: Electron microscopy and quantification of autophagosomes in tumors; type: in vivo, mice; settings: 24 hours after initiation of TAM/PBS compared to 48 hours of PBS alone; p<0.0005
Excerpt: Cells were postfixed with 2% osmium tetroxide followed by an increasing gradient dehydration step using ethanol and propylene oxide. […] Data is presented as mean ±SD.

cleaved caspase 3 = test: Western blot of cleaved caspase 3 in tumor lysates; type: in vivo, mice; settings: lysates obtained at 48 hours; data not shown
Excerpt: Cultured cells were lysed in RIPA buffer. Tumor lysates were obtained by manual agitation of tumor tissue and lysis in RIPA. Lysates were standardized for protein content and resolved by SDS-PAGE on 14% NuPAGE gels (Invitrogen, St Louis, Mo.). Nitrocellulose blots were probed with antibodies against cleaved caspase 3 (rabbit monoclonal antibody; […]) (Cell Signaling, Beverly, Mass.); anti-actin (mouse monoclonal antibody; 1:10,000) (Sigma, St. Louis, Mo.); anti-ATG5 (rabbit polyclonal antibody; 1:2000) (gift from N. Mizushima).

Compound: 4-hydroxytamoxifen [hTAM]
- punctate GFP-LC3 fluorescence [1]: increased number of punctate LC3 associated vesicles

Compound: Cn1cnc(N)c2ncnc1-2 [3-MA, 3-methyladenine]
- effect on survival of cells grown in the presence of IL-3 (Bax^−/−Bak^−/− cells [2]): no significant effect
- death of the cells in the cultures (Bax^−/−Bak^−/− cells [2]): 72%
- number of autophagosomes (LC3 redistribution from punctate to diffuse staining) (LC3): reduction in the number of autophagosomes
- ATP levels (Bax^−/−Bak^−/− cells [3]): dramatic decline in ATP levels

Compound: CCN(CC)CCCC(C)Nc1ccnc2cc(Cl)ccc12 (centres unmarked) [CQ, chloroquine]
- effect on survival of cells grown in the presence of IL-3 (Bax^−/−Bak^−/− cells [2]): no significant effect
- death of the cells in the cultures (Bax^−/−Bak^−/− cells [2]): 82%
- number of autophagosomes (LC3 redistribution from punctate to diffuse staining) (LC3): reduction in the number of autophagosomes
- ATP levels (Bax^−/−Bak^−/− cells [3]): dramatic decline in ATP levels
- IC50 [4]: 3 µM
- tumor regression (Myc/p53ER^TAM lymphomas [5]; CQ 50 or 60 mg/kg/day IP daily, single agent): not observed
- average time to tumor recurrence (Myc/p53ER^TAM lymphomas [5]; cyclophosphamide 50 mg/kg IP once followed by daily CQ 60 mg/kg/day IP for 13 days): 12.5 ± 6.6 days
- additional toxicity in treated animals ([6]; CQ cotreatment with TAM or with cyclophosphamide): did not result in additional toxicity
- observed toxicity ([6]; daily IP 50 mg/kg/day or 60 mg/kg/day): no observed toxicity
- tolerability of systemic administration ([6]; for up to 20 days): well tolerated
- punctate GFP-LC3 fluorescence [1]: Some punctate GFP-LC3 fluorescence

Compound: CC/C(=C(\c1ccccc1)c1ccc(OCCN(C)C)cc1)c1ccccc1 [TAM/PBS, tamoxifen]
- mice with complete clinical regression of their tumor (Myc/p53ER^TAM lymphomas [5]; TAM/CQ and TAM/HCQ pooled in one figure, p<0.005): 8%
- increase of percentage of tumor cells with autophagosomes (Myc/p53ER^TAM lymphomas [7]): 30 fold
- cleaved caspase 3 in tumor lysates (cleaved caspase 3): absent

Compound: O=P1(N(CCCl)CCCl)NCCCO1 (centres unmarked) [cyclophosphamide]
- average time to tumor recurrence (Myc/p53ER^TAM lymphomas [5]; cyclophosphamide 50 mg/kg IP once followed by daily PBS): 5.25 ± 1.9 days
- tumor regression (Myc/p53ER^TAM lymphomas [5]; single dose cyclophosphamide 50 mg/kg IP with or without CQ): complete tumor regression in all treated mice

Compound: COC(=O)C(C)=O [methyl pyruvate]
- effect on death observed in response to 3-MA and CQ (Bax^−/−Bak^−/− cells [2]; 10 mM methyl pyruvate added at the time of 3-MA or CQ treatment, IL-3 deprived 6 weeks): suppressed the death
- effect on ATP decline caused by 3-MA or CQ (Bax^−/−Bak^−/− cells [3]; 10 mM MP, 8 hours): could be suppressed
